In patent publication EP3315028B1, “USE OF INHIBITORS OF NLP PROTEINS AS PHYTOPHARMACEUTICALS FOR PLANT PATHOGEN CONTROL” (Kemijski Institut, priority 2016, dated 2018):
Entries after “also recorded” stand apart in the source; their conditions may differ.

Assays:
tobacco leaves = test: Control infiltration of tobacco leaves with compounds alone (necrosis); conditions: compound at the final 1 mM concentration, no NLP protein, 5 % DMSO (Figure 4)
Protocol: This biological test may be used to assess the impact of compounds on the functionality of NLPs. The NLP protein solution is injected in the absence or presence of the compounds into tobacco leaves of healthy plants. The plants are then observed for 1-3 days and checked for the presence of necrosis.
Compounds: Compounds were prepared as stock solutions with a concentration of 10 mM in DMSO. Appropriate working solutions were prepared by appropriate dilution of the stock solution. The concentration of DMSO in the test solution was 5 %.
Tobacco plants: Tobacco plants (Nicotiana tabacum White Burley) were cultured in chambers for growing plants under controlled conditions of light, humidity and temperature up to the age of 5-7 weeks.
Protein solution, compound and appropriate volume of ultrapure water were mixed in Eppendorf tubes. The mixture was mixed well and injected in the lower epidermis of tobacco leaves. We have injected 50 µL of solution. The area of injected solution was labelled on tobacco leaves. We used ultrapure water, 5 % DMSO, protein solutions of NLPs at different concentrations and appropriate dilutions of compounds as control solutions. The area on the lower side of the leaf, which was infiltrated with solutions, was photographed immediately after injection, and then after 24, 48 and 72 hours. On the third day the plant leaf was photographed also from the top side.

Phytophthora infestans = type: in vivo, Phytophthora infestans (strain 88069); conditions: for growth of the pathogen P. infestans on potato leaves, visual analysis: 1 mM compound in 10 µL drops with 5 × 10^4 mL^-1 zoospores, 4 days, 18 °C, vs control compound (Figure 6A); for amount of pathogen DNA by real-time PCR, control samples vs samples with compound: 1 mM compound, potato leaves 4 days after infection, Student's t-test, *** P <0.001 (Figure 6B)

Compound | necrosis of tobacco leaves caused by compound solution alone (tobacco leaves) | growth of the pathogen P. infestans on potato leaves, visual analysis (Phytophthora infestans) | amount of pathogen DNA by real-time PCR, control samples vs samples with compound (Phytophthora infestans)
Cc1ccc2occ(C3NC(C(=O)O)CS3)c(=O)c2c1 (stereo not drawn) [Compound I, 2-(6-methyl-4-oxochromen-3-yl)-1,3-thiazolidin-3-ium-4-carboxylate] | did not cause necrosis; also recorded: Necrosis was not caused | able to inhibit growth of the pathogen | statistically significant amounts of pathogen DNA in control samples
COc1ccc(Nc2ccccc2C(=O)O)cc1 [Compound IIa, 2-[(4-methoxyphenyl)amino]benzoic acid] | did not cause necrosis; also recorded: Necrosis was not caused | able to inhibit growth of the pathogen | statistically significant amounts of pathogen DNA in control samples
